# Results taken from patent publication US20060039996A1, “Method for treating sepsis” (priority 2004, published 2006).
# Tested on: B. Pseudomonas aeruginosa
# Assay: Induced peritoneal sepsis, survival
# Format: in vivo
# Conditions: for Survival (animals alive): bacteria + Gentamycin 1.0 mg/ml i.p.
# Protocol: Mice (C3H) were induced with B. Pseudomonas aeruginosa to have peritoneal sepsis, with resultant infection injury to the lung. Fox-Dewhurst, R., et al., Am. J Respir. Crit. Care Med., 155:2030-2040 (1997). Groups of animals (n=4 per group) were treated with doses of bacteria (108-1010 cfu/ml) in the peritoneum. Injection bacteria was prepared in saline at 10×10^7 cfu/ml. 0.3 ml of bacterial solution was injected into the peritoneal cavity. After three minutes, 0.3 ml of saline or 0.5 ml of electrolyzed saline solution was injected intraperitoneally. A group of animals was treated with Gentamycin as a positive control to compare the effectiveness of 25%, 50%, and 100% electrolyzed saline solutions. This group of animals was treated at the time of bacterial inoculation with Gentamycin at a concentration of 1.0 mg/ml intraperitoneally.
# Six study groups of mice were studied: saline control, Gentamycin positive control, bacteria plus 25% electrolyzed saline solution, bacteria plus 50% electrolyzed saline solution, bacteria plus 100% electrolyzed saline solution, and bacteria plus saline.
substance,measurement,setting,value
Gentamycin,Survival (animals alive),"24 hrs, n=4",4
same,clinical appearance of animals,"48 hours, Gentamicin 1.0 mg/ml i.p.",still normal with no sign of sickness
same,Survival (animals alive),"48 hrs, n=4",4
same,survival rate,"72 hours, Gentamicin 1.0 mg/ml i.p.",50%
same,animals died,"72 hours, Gentamicin 1.0 mg/ml i.p., n=4",2
same,Survival (animals alive),"72 hrs, n=4",2
